According to ChEMBL document CHEMBL4765420, “Design, synthesis and biological evaluation of novel HDAC inhibitors with improved pharmacokinetic profile in breast cancer” (Eur J Med Chem, 2020):

Columns and labels:
MDA-MB-231 = assay: Antiproliferative activity against human MDA-MB-231 cells measured after 24 hrs by MTT assay; assay type: functional, cell-based; settings: MDA-MB-231, 24 h
[1] = target: T1, Protein deacetylase HDAC6 (Homo sapiens, UniProt Q9UBN7); assay: Inhibition of recombinant human His-tagged HDAC6 expressed in baculovirus infected insect cells using Ac-Leu-Gly-Lys(Ac)-AMC as substrate measured after 30 mins by fluorescence assay
T1 sequence (Q9UBN7 whole entry): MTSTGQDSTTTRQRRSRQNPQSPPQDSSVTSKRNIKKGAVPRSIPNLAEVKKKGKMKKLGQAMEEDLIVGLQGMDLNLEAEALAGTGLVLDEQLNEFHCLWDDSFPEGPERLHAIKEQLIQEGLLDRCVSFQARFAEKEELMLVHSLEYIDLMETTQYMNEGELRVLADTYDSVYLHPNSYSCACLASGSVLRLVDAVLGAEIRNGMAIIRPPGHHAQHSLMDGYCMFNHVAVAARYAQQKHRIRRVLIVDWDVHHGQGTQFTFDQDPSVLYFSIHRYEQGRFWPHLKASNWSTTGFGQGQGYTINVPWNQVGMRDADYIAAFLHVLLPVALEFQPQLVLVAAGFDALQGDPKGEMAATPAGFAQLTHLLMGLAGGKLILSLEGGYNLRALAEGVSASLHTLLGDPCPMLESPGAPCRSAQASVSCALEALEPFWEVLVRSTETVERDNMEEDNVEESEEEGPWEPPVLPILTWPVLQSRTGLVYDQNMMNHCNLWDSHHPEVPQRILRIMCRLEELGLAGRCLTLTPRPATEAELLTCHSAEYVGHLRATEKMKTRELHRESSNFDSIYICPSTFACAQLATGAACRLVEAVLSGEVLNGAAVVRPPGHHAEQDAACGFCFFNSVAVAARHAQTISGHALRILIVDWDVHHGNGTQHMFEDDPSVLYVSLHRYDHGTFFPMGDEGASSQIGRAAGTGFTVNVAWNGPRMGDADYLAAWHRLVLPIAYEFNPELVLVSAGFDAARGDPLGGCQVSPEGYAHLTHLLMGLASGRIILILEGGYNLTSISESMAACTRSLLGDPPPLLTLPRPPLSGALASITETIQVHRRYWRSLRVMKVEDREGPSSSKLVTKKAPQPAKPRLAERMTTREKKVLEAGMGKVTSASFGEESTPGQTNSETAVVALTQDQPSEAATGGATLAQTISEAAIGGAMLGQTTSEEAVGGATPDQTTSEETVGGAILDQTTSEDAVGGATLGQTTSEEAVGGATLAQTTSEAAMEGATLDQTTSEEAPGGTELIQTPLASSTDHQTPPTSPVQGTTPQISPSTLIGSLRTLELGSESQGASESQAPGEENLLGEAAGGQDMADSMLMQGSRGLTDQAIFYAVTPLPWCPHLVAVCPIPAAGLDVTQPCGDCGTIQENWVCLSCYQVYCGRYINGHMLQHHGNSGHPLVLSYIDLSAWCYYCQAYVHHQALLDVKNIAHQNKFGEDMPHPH

[2] = AUC (0 to infinity) in Beagle dog at 20 mg/kg, po by LC-MS/MS analysis; assay type: ADME, organism-based, Canis lupus familiaris; design: route oral, time infinity, dose 20 mg/kg; settings: in vivo
Histone deacetylase 2 = Histone deacetylase 2 (Homo sapiens, UniProt Q92769); assay: Inhibition of human full-length C-terminal FLAG-tagged HDAC2 expressed in baculovirus infected Sf9 insect cells using Ac-Leu-Gly-Lys(Ac)-AMC as substrate measured after 30 mins by fluorescence assay; assay type: cell-based
Chain of Histone deacetylase 2 (Q92769 whole entry): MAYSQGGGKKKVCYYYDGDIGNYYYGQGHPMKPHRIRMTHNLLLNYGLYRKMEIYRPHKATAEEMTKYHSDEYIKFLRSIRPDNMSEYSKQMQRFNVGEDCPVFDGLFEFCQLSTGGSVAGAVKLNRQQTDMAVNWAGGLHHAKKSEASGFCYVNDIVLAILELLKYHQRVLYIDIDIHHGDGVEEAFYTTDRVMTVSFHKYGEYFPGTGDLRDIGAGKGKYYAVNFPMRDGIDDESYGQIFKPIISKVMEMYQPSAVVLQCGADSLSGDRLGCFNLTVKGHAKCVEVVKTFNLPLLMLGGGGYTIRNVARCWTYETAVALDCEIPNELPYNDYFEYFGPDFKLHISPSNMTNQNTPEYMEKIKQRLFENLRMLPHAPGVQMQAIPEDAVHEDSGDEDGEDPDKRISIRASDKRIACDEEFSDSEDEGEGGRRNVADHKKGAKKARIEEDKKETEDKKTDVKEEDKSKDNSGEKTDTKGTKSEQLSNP

Histone deacetylase 4 = Histone deacetylase 4 (Homo sapiens, UniProt P56524); assay: Inhibition of recombinant human N-terminal GST-tagged HDAC4 (627 to end residues) expressed in baculovirus infected Sf9 insect cells using AcLeu-Gly-Lys(Tfa)-AMC as substrate measured after 30 mins by fluorescence assay
Chain of Histone deacetylase 4 (P56524 whole entry): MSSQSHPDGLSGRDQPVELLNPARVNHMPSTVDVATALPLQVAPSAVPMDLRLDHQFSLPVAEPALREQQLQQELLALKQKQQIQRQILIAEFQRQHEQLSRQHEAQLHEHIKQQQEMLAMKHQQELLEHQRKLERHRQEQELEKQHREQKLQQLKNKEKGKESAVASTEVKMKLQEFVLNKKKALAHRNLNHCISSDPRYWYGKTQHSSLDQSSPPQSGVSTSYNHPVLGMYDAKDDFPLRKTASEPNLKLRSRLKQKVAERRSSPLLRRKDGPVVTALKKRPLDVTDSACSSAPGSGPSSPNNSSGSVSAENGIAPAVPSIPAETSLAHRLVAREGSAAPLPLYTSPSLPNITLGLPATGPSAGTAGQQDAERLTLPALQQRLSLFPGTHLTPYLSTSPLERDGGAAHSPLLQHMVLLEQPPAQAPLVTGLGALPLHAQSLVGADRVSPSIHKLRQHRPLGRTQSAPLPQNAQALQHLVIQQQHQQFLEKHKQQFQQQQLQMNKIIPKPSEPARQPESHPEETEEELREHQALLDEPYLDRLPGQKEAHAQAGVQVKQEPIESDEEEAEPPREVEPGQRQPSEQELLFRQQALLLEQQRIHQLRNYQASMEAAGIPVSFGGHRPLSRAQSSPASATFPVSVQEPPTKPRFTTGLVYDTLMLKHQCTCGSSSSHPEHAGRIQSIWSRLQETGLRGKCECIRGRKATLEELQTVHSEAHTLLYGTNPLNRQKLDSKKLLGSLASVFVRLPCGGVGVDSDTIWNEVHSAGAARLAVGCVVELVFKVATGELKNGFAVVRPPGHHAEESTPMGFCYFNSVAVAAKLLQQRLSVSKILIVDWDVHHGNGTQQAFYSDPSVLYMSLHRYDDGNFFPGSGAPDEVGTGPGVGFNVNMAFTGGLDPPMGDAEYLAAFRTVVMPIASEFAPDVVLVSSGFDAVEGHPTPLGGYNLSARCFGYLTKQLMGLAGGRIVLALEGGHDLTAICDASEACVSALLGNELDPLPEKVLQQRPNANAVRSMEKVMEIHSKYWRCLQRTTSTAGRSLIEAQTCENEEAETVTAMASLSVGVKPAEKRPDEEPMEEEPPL

[3] = Cmax in Beagle dog at 20 mg/kg, po by LC-MS/MS analysis; assay type: ADME, organism-based, Canis lupus familiaris; design: route oral, dose 20 mg/kg; settings: in vivo
[4] = Tmax in Beagle dog at 20 mg/kg, po by LC-MS/MS analysis; assay type: ADME, organism-based, Canis lupus familiaris; settings: in vivo
Histone deacetylase 5 = Histone deacetylase 5 (Homo sapiens, UniProt Q9UQL6); assay: Inhibition of recombinant human full-length N-terminal GST-tagged HDAC5 expressed in baculovirus infected Sf9 insect cells using AcLeu-Gly-Lys(Tfa)-AMC as substrate measured after 30 mins by fluorescence assay
Chain of Histone deacetylase 5 (Q9UQL6 whole entry): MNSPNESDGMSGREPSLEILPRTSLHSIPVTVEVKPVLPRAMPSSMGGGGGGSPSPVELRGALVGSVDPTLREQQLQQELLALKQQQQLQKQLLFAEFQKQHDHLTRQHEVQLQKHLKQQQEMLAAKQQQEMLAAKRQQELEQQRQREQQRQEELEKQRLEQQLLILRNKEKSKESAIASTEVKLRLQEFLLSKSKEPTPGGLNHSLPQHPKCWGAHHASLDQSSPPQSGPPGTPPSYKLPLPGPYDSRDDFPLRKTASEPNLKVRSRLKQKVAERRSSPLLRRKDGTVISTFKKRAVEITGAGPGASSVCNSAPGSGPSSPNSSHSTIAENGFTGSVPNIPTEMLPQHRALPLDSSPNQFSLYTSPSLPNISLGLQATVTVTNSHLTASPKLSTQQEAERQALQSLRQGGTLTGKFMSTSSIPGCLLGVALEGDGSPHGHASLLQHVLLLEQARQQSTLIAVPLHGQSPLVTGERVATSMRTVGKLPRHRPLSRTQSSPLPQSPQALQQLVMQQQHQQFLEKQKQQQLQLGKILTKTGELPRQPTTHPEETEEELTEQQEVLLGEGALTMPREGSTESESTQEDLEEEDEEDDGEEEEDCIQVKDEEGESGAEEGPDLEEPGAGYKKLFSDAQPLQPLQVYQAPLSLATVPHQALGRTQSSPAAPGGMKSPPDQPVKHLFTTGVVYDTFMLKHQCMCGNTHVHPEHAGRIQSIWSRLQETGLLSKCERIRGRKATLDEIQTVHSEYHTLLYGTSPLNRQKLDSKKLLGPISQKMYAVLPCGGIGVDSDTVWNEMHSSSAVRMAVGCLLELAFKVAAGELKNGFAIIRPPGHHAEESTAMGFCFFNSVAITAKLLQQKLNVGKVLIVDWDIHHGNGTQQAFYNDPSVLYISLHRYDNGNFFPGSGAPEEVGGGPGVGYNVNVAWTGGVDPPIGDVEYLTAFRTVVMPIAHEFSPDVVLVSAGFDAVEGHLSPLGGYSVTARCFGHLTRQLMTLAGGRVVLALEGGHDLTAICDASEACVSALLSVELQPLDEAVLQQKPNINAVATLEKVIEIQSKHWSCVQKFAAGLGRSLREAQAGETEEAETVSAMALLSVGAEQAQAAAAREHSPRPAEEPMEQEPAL

Histone deacetylase 8 = target: T2, Histone deacetylase 8 (Homo sapiens, UniProt Q9BY41); assay: Inhibition of recombinant human full-length C-terminal His-tagged HDAC8 expressed in baculovirus infected Sf9 insect cells using Ac-Leu-Gly-Lys(Tfa)-AMC as substrate measured after 30 mins by fluorescence assay
T2 sequence (Q9BY41 whole entry): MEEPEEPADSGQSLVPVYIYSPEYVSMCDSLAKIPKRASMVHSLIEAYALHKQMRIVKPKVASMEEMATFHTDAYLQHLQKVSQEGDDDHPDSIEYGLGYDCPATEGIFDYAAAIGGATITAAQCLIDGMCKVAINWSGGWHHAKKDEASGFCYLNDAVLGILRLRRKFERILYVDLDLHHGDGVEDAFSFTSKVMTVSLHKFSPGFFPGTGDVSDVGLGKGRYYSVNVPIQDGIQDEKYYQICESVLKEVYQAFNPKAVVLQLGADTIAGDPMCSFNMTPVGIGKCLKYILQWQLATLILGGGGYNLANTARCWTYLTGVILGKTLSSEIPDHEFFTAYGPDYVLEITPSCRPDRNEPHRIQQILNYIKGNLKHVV

[5] = AUC (0 to t) in Beagle dog at 20 mg/kg, po by LC-MS/MS analysis; assay type: ADME, organism-based, Canis lupus familiaris; design: dose 20 mg/kg; settings: in vivo
[6] = target: Histone deacetylase 3/NCoR1 (Homo sapiens, UniProt O15379); assay: Inhibition of recombinant human GST-fused HDAC3/NCOR1 (397 to 503 residues) expressed in baculovirus infected insect cells using Ac-Leu-Gly-Lys(Ac)-AMC as substrate measured after 30 mins by fluorescence assay
Histone deacetylase 1 = Histone deacetylase 1 (Homo sapiens, UniProt Q13547); assay: Inhibition of recombinant human His-tagged HDAC1 expressed in insect cells using Ac-Leu-Gly-Lys(Ac)-AMC as substrate measured after 30 mins by fluorescence assay
Chain of Histone deacetylase 1 (Q13547 whole entry): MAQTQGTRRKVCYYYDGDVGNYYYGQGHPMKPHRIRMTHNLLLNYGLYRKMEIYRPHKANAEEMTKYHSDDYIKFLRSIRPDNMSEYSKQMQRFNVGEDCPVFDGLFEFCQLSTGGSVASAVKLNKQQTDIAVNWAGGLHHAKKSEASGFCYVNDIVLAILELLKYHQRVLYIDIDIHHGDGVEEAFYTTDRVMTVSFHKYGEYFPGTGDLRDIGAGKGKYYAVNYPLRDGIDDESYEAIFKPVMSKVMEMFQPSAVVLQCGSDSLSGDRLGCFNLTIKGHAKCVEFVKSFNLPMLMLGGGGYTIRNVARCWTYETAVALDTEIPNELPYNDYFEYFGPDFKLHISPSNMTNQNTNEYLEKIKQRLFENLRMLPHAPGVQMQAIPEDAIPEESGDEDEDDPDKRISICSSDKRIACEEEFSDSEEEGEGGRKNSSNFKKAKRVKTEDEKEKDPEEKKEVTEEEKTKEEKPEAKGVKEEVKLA

[7] = Half life in Beagle dog at 20 mg/kg, po by LC-MS/MS analysis; assay type: ADME, organism-based, Canis lupus familiaris; settings: in vivo
Histone deacetylase 11 = target: T3, Histone deacetylase 11 (Homo sapiens, UniProt Q96DB2); assay: Inhibition of recombinant human N-terminal His-tagged HDAC11 expressed in baculovirus infected Sf9 insect cells using Ac-Arg-His-Lys(Ac)-Lys(Ac)-AMC as substrate measured after 30 mins by fluorescence assay
T3 sequence (Q96DB2 whole entry): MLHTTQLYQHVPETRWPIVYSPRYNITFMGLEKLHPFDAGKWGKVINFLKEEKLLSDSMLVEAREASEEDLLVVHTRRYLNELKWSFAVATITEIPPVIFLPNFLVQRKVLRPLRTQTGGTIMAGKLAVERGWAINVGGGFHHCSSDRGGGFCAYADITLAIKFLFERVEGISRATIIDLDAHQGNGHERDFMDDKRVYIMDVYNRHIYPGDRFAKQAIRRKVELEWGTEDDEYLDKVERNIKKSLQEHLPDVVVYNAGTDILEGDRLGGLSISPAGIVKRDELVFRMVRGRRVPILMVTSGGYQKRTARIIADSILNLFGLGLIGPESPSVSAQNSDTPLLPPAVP

Histone deacetylase 7 = target: T4, Histone deacetylase 7 (Homo sapiens, UniProt Q8WUI4); assay: Inhibition of HDAC7 (unknown origin) using AcLeu-Gly-Lys(Tfa)-AMC as substrate measured after 30 mins by fluorescence assay
T4 sequence (Q8WUI4 whole entry): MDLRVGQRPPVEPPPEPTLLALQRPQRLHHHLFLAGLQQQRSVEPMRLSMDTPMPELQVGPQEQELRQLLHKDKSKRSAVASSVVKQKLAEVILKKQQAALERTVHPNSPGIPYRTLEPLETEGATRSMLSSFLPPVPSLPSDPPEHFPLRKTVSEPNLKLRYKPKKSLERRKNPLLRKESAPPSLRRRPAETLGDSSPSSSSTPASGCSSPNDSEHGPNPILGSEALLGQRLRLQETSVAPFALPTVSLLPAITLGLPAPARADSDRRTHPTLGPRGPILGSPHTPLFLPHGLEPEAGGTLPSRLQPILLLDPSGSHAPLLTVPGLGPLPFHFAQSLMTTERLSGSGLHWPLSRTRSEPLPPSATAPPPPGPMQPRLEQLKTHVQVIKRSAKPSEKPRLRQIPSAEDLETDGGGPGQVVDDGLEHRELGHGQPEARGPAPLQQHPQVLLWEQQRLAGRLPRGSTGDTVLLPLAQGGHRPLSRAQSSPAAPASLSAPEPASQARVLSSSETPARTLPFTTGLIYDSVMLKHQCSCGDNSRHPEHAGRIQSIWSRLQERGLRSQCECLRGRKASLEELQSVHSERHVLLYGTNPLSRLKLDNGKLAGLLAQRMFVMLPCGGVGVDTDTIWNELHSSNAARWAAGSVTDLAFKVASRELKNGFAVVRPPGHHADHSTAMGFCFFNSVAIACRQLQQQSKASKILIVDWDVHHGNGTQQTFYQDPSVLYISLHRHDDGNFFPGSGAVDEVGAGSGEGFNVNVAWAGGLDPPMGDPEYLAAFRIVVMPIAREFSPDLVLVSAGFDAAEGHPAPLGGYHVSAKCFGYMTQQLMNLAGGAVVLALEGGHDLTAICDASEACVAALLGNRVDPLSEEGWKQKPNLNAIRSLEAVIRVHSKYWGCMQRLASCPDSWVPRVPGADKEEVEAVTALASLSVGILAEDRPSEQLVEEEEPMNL

Histone deacetylase 9 = Histone deacetylase 9 (Homo sapiens, UniProt Q9UKV0); assay: Inhibition of recombinant human full-length N-terminal GST-tagged HDAC9 (1 to 1069 residues) expressed in wheat germ expression system using Ac-Leu-Gly-Lys(Tfa)-AMC as substrate measured after 30 mins by fluorescence assay
Chain of Histone deacetylase 9 (Q9UKV0 whole entry, the tested form may be a part): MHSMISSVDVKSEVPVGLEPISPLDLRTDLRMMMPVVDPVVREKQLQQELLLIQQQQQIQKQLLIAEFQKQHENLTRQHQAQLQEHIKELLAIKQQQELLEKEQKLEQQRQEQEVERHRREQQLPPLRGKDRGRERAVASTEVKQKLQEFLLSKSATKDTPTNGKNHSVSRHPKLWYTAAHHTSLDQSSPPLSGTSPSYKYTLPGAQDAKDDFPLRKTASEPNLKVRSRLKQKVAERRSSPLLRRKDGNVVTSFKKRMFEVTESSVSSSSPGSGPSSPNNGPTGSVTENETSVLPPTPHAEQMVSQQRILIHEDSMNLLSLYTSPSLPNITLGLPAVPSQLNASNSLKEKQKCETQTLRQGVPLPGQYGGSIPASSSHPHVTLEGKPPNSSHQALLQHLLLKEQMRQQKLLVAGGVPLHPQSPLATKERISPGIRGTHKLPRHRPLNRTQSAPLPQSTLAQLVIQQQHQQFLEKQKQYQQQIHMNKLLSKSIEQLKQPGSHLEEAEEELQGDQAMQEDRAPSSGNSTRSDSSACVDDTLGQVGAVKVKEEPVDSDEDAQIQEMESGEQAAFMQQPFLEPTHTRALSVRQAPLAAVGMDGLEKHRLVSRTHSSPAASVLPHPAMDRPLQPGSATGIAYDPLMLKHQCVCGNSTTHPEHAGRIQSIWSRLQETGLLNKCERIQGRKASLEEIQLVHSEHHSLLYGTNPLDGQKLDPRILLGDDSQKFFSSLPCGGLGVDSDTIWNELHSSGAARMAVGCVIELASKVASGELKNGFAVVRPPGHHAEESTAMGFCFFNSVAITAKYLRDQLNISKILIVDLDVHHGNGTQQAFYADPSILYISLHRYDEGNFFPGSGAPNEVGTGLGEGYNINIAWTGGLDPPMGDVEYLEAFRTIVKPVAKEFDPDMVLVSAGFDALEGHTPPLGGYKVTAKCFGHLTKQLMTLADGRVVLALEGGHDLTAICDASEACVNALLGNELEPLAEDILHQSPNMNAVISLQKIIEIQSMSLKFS

Structure (SMILES) | IC50 (MDA-MB-231) [µM] | IC50 [1] [µM] | further results
COc1cc(OC)c2c(N3CCOC[C@@H]3C)nc(-c3cc(C)c(OCC(=O)NO)c(C)c3)nc2c1 | 29.4 | > 20 | 
COc1cc(OC)c2c(N3CCS(=O)(=O)CC3)nc(-c3cc(C)c(OCC(=O)NO)c(C)c3)nc2c1 | > 50 | > 20 | 
COc1cc(OC)c2c(N3CCOCC3)nc(-c3cc(C)c(OCC(=O)NO)c(C)c3)nc2c1 | 35.9 | > 20 | 
COc1cc(OC)c2c(N3CCS(=O)(=O)CC3)nc(-c3cc(C)c(OCCCCC(=O)NO)c(C)c3)nc2c1 | 12.1 | 0.13 | 
COc1cc(OC)c2c(N3CCOCC3)nc(-c3cc(C)c(OCCCCCC(=O)NO)c(C)c3)nc2c1 | 5.54 | 0.119 | 
COc1cc(OC)c2c(N3CCN(C)CC3)nc(-c3cc(C)c(OCCCCCC(=O)NO)c(C)c3)nc2c1 |  |  | AUC [2]: 1289.4 ng·h/mL; IC50 (Histone deacetylase 2): 0.0973 µM; IC50 (Histone deacetylase 4): > 1 µM; Cmax [3]: 120.36 ng/mL; Tmax [4]: 0.79 h; IC50 (Histone deacetylase 5): > 1 µM; IC50 (Histone deacetylase 8): 0.378 µM; AUC(0-t) [5]: 1280 ng·h/mL; IC50 [6]: 0.0792 µM; IC50 (Histone deacetylase 1): 0.0869 µM; t1/2 [7]: 1.24 h; IC50 (Histone deacetylase 11): > 1 µM; IC50 (Histone deacetylase 7): > 1 µM; IC50 (Histone deacetylase 9): > 1 µM
COc1cc(OC)c2c(N3CCOCC3)nc(-c3cc(C)c(OCCCCC(=O)NO)c(C)c3)nc2c1 | 7.21 | 0.21 | 
COc1cc(OC)c2c(N3CCSCC3)nc(-c3cc(C)c(OCC(=O)NO)c(C)c3)nc2c1 | 37.2 | > 20 | 
COc1cc(OC)c2c(N3CCOC[C@@H]3C)nc(-c3cc(C)c(OCCCCC(=O)NO)c(C)c3)nc2c1 | 6.6 | 0.19 | 
COc1cc(OC)c2c(N3CCS(=O)(=O)CC3)nc(-c3cc(C)c(OCCCC(=O)NO)c(C)c3)nc2c1 | 18.4 | 0.85 | 
